Patent US20110087153A1, “Transdermal Methods And Systems For The Delivery Of Rizatriptan” (priority 2009, published 2011)
Blank lines part the entries; values can stand above or below the compound they belong to.

How the values were obtained:
[1] = cited from earlier work
[2] = Permeation through dialysis membrane (iontophoresis side-by-side diffusion cells); type: in vitro ADME
Method: Ionotophoresis side-by side diffusion cells with 9 mm diameter opening were obtained from PermeGear. The current clamps with PC control were provided by NuPathe, Inc. The temperature controller was from Henke. 2.0 mm diameter Zinc and Silver were obtained from Alpha Aesar. Sumatriptan, Zolmitriptan and Rizatriptan wore provided by NuPathe. Sodium chloride was obtained from Fisher Scientific,
A donor solution of 4% sumatriptan succinate in 0.9% NaCl was prepared. The receiver solution was 0.9% Sodium chloride in water. A Millipore 1000 mw cutoff membrane were used as the membrane. The glossy side of the membrane faced the donor compartment. The volume of the donor and receiver solution was 3.0 ml. 0.5 mm zinc wire was placed in the donor compartment and 2.0 mm silver wire was placed in the receiver compartment. The temperature of the apparatus was maintained at 33° C.
Ketoprofen was obtained from Spectrum Chemical. A 2% ketoprofen donor solution was made by dissolving in 0.1 N NaOH.
Three cells were clamped at 2 mAmps/cm^2 (1.27 mAmp/cell), 3 cells were clamped at 2 mAmp/cm^2 with the electrodes reversed, 3 cells (the control cells) were not clamped.
At each sampling point 2 ml was withdrawn from the receiver compartment and was replaced with 0.9% Sodium Chloride. Each sample was diluted using 0.9% NaCl to be within the standard curve. Absorbance was measured using a UV spectrophotometer with a 1 cm quartz cuvette at 282 nm. […]

[3] = Permeation of compound through human cadaver skin (iontophoresis, drug solutions); type: in vitro ADME; conditions: 2 mAmp/cm^2, 2% zolmitriptan, 4% rizatriptan, 4% sumatriptan solutions (FIG. 5)
Method: Human cadaver skin was obtained from Allosource. The skin was maintained at −70° C. prior to use. A portion of skin was thawed in 0.9% NaCl solution for 30 minutes. The skin was towel dried and cut into 2 cm square sections. The skin was mounted with the epidermis side toward the donor chamber in the Permeagear 0.9 cm diameter side-by-side diffusion cells.
A solution of 2% zolmitriptan was made by dissolving zolmitriptan in 0.1 N HCl. A 4% sumatriptan solution was made by dissolving sumatriptan in 0.1% NaCl. The 4% rizatriptan solution was made by dissolving the rizatriptan in 0.1% NaCl
Three cells were dosed with 2% zolmitriptan, three cells were dosed with 4% rizatriptan, and two cells were dosed with 4% sumatriptan. Normal saline solution was used as the receiver solution. The cells were clamped at 1.27 mAmp (2 mAmp/cm^2). 2 ml of each receiver compartment was sampled every 30 minutes and replaced with normal saline solution. One cell of the rizatriptan iontophoresis and one cell of sumatriptan iontophoresis were lost during the study due to holes in the skin.
Each 2 ml sample was diluted 1 to 100 with water. Zolmitriptan and sumatriptan were assayed by UV at 222 nm and 282 nm respectively. Rizatriptan was assay by HPLC as previously described.

[4] = Permeation of formulated product through human cadaver skin (iontophoresis, gel formulations); type: in vitro ADME; conditions: for Lag time: human cadaver skin, gel with 3.4% lauric acid, 2 mAmp/cm^2
Method: Brij 30 (Laureth-4) and adipic acid were obtained from Fisher Scientific. Eudragit E*PO was obtained from Evonik. Human cadaver skin was thawed in 0.9% NaCl for 30 minutes and patted dry. The skin was cut into 2 cm square sections. The epidermis was placed towards the donor compartment of a […] PermeGear side-by-side diffusion cell. The donor gel was placed in the donor compartment and 3 ml of normal saline solution was placed in the receiver compartment. Three cells were dosed with zolmitriptan with 3.4% lauric acid, three cells were dosed with rizatriptan with 3.4% lauric acid and two cells were dosed with rizatriptan with 3.4% Brij 30. The cells were clamped at 1.27 mAmp (2 mAmp/cm^2). Two ml of each receiver compartment was sampled every 30 minutes and replaced with normal saline solution. Each 2 ml sample was diluted 1 to 100 with water. Zolmitriptan and sumatriptan were assayed by UV at 222 nm Rizatriptan was assayed by HPLC as previously described. Additional analysis of the permeation data was conducted to find the amount of time to dose 5 mg of drug based on reasonable patch areas, and is shown in Table 4. […] However, as was observed by the previous permeation data, zolmitriptan would need a total of 43 minutes when the lag-time is considered compared to 19 minutes for rizatriptan when the lag time is considered.

[5] = Iontophoresis properties (charge and molecular weight analysis); type: physicochemical
Excerpt: This is because the diffusion and permeation through a hydrophilic membrane are dependent on molecular weight, radius of the molecule and the ionic drag the molecule has with the membrane.

[6] = Oxidation stability for rizatriptan under 2 mA current; type: physicochemical; conditions: for Rizatriptan concentration after exposure to 2 mAmp current: 0.9% NaCl
Method: A drug stock solution was made by dissolving 2.8 mg of rizatriptan benzoate in 0.9% NaCl to a volume of 50 mL. The working standard was prepared by diluting 0.5 ml of the stock solution to 10 ml with 0.9% NaCl. This produced a final concentration of 2.8 mcg/ml, for the working standard.
A solution was made by dissolving 0.5000 g of rizatriptan benzoate in 0.9% NaCl to a final volume of 50 mL. A 1 ml sample of this solution was kept for future assay. The remaining solution was placed in a beaker covered with parafilm Zinc wire (Cathode) and silver wire (anode) were passed through the parafilm and placed in the drug solution. Current of 2 mA was passed through the solution. Samples of 1 mL each were withdrawn every 30 minutes for 5.5 hours.
A 0.1 mL volume from each sample was diluted with 15 mL of 0.9% NaCl. A 1 ml volume of this dilution was then further diluted to 10 ml using 0.9% NaCl. Similarly, a 0.1 ml volume of the initial solution was diluted with 15 mL of 0.9% NaCl. A 1 ml volume of this dilution was then diluted to 10 ml with 0.9% NaCl.

[7] = 1000 mwco dialysis membrane, 33° C., UV assay
[8] = 1000 mwco dialysis membrane, 33° C., UV assay, listed as ketoprofen

SMILES: CCCCCCCCCCCC(=O)O [Lauric acid]
- pKa [1]: around 4.9

- Flux, Passive diffusion (No current) ([2]; not told): 3.32 mcg/cm^2/min
- Flux, Reversed Electrodes (Current reversed at 2 mAmp/cm^2) ([2]; not told): 0.05 mcg/cm^2/min
- Ratio of Iontophoresis to Passive Diffusion ([2]; not told): 11.5
- Lag time [4]: 20 min
- Total time to deliver 5 mg when the lag time is considered [4]: 43 min
- Ionizable Nitrogens [5]: 3
- MW/charge Ratio [5]: 92.8
SMILES: CN(C)CCc1c[nH]c2ccc(C[C@H]3COC(=O)N3)cc12 [Zolmitriptan]
- Skin permeation by iontophoresis [3]: very comparable to the permeation of sumatriptan via iontophoresis

- Lag time [4]: 9 min
- Total time to deliver 5 mg when the lag time is considered [4]: 19 min
- Time in which a dose (5 mg) can be delivered ([4]; suggested by the results of the formulation studies): about 45 minutes
- Rizatriptan concentration after exposure to 2 mAmp current ([6]; 0 min): 10.000 mg/mL
- Exposure time after which degradation becomes significant ([6]; 2 mA current): > 4 h
- Rate of degradation ([6]; 2 mA current, regression with all data): ~16 µg/mL/min
- Rizatriptan concentration after exposure to 2 mAmp current ([6]; 30 min): 10.041 mg/mL
- Rizatriptan concentration after exposure to 2 mAmp current ([6]; 60 min): 9.829 mg/mL
- Rizatriptan concentration after exposure to 2 mAmp current ([6]; 90 min): 9.909 mg/mL
- Rizatriptan concentration after exposure to 2 mAmp current ([6]; 120 min): 9.782 mg/mL
- Rizatriptan concentration after exposure to 2 mAmp current ([6]; 150 min): 9.942 mg/mL
- Rizatriptan concentration after exposure to 2 mAmp current ([6]; 180 min): 9.875 mg/mL
- Rizatriptan concentration after exposure to 2 mAmp current ([6]; 210 min): 9.801 mg/mL
- Rizatriptan concentration after exposure to 2 mAmp current ([6]; 240 min): 9.758 mg/mL
- Rizatriptan concentration after exposure to 2 mAmp current ([6]; 270 min): 9.963 mg/mL
- Rizatriptan concentration after exposure to 2 mAmp current ([6]; 300 min): 9.216 mg/mL
- Rizatriptan concentration after exposure to 2 mAmp current ([6]; 330 min): 9.389 mg/mL
- Degradation ([6]; during the 5.5 hour exposure to 2 mA current): approximately 7%
- Ionizable Nitrogens [5]: 3
- MW/charge Ratio [5]: 89.8
SMILES: CN(C)CCc1c[nH]c2ccc(Cn3cncn3)cc12 [Rizatriptan]
- Skin permeation by iontophoresis [3]: greater skin permeation than sumatriptan and zolmitriptan

- Flux, Iontophoresis (2 mAmp/cm^2) [2, 7]: 8.24 mcg/cm^2/min
- Flux, Passive diffusion (No current) [2, 7]: 7.41 mcg/cm^2/min
- Flux, Reversed Electrodes (Current reversed at 2 mAmp/cm^2) [2, 7]: 11.66 mcg/cm^2/min
- Flux, Iontophoresis (2 mAmp/cm^2) [2, 8]: less than the passive diffusion
- Flux, Passive diffusion (No current) [2, 8]: substantial
- Flux, Reversed Electrodes (Current reversed at 2 mAmp/cm^2) [2, 8]: greatest flux
- Ratio of Iontophoresis to Passive Diffusion ([2]; 1000 mwco dialysis membrane, UV assay): 1.6
SMILES: CC(C(=O)O)c1cccc(C(=O)c2ccccc2)c1 (centres unmarked) [Ketoprofen]

- Flux, Passive diffusion (No current) ([2]; not told): 0.58 mcg/cm^2/min
- Flux, Reversed Electrodes (Current reversed at 2 mAmp/cm^2) ([2]; not told): 0.11 mcg/cm^2/min
- Ionizable Nitrogens [5]: 2
- MW/charge Ratio [5]: 147.7
SMILES: CNS(=O)(=O)Cc1ccc2[nH]cc(CCN(C)C)c2c1 [Sumatriptan]
